Experimental data published in patent US8598374B2, “GPR120 receptor agonists and uses thereof” (Metabolex, Inc, priority 2008, dated 2013).

Each compound was assayed against T1, human GPR120 (Homo sapiens, UniProt Q5NUL3) (assay: Intracellular Ca2+ assay (FLIPR Calcium 4, Flexstation) in human GPR120 stable cell line). Conditions: % activity at 2.5 μM compared to the maximal activity of the compound of Example 25 at 2.5 μM; HEK293 cells co-expressing Gqi5.
T1 construct: Flag (DYKDDDDK) (N); host or cells: HEK293 cells co-expressing Gqi5
T1 sequence (Q5NUL3 1-361): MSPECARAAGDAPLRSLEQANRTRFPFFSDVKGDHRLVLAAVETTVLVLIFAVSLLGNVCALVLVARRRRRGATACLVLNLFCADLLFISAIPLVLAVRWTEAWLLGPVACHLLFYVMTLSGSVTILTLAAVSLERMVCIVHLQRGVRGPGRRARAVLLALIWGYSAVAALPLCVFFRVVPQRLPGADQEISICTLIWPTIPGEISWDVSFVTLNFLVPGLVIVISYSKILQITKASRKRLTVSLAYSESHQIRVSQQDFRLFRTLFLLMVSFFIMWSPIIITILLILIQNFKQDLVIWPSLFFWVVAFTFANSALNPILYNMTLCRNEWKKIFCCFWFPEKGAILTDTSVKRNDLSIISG
Assay type: cell-based
Description: Human GPR120 stable cell line was purchased from Multispan Inc (26219 Eden Landing Road, Hayward, Calif. 94545). This GPR120 cell line was generated in HEK293 cells co-expressing Gqi5. In this cell line, the Flag epitope tag (DYKDDDDK) was fused to the amino terminus of human GPR120 protein.
The concentration of intracellular Ca^2+ was measured as described below. Human GPR120 cells were plated in 96 well plates (Poly-D-Lysine coated black/clear Plate, Greiner Bio-One) at 70,000 cells per well and cultured overnight in conditions of 37° C. and 5% CO2. A Ca^2+ assay dye stock solution was prepared by adding 10 mL of assay buffer (HBSS/20 mM HEPES, pH 7.4) to FLIPR Calcium 4 Assay Bulk Kit (Molecular Devices). The 10 mL of Ca^2+ assay dye solution was prepared by further diluting 0.5 mL of Ca^2+ assay dye stock solution with 10 mL of assay buffer. The medium of the cells was removed and immediately 100 μL of the Ca^2+ assay dye solution was dispensed into each well followed by incubation at 37° C. and 5% CO2 for 50 minutes to incorporate the Ca^2+ dye into the cells. The cell plate was then placed in the Flexstation (Molecular Devices) for 20 minutes at 37° C. Compounds were dissolved in 100% DMSO and diluted to desired concentrations with assay buffer and placed in the Flexstation simultaneously with the cell plate for 20 minute incubation at 37° C. prior to reading. Fluorescence intensity was measured immediately following compound addition (25 μL/well) on the Flexstation at an excitation wavelength of 485 nm and an emission wavelength of 525 with 515 nm auto cutoff. The resulting increase in fluorescence intensities corresponds to increases in intracellular Ca^2+ levels.
Compounds were dissolved in 100% DMSO to a concentration of 20 mM to provide stock solutions. To determine activity against human GPR120, compounds were added with human GPR120 stably expressing cells (described above), at eight desired concentrations ranging from 0.00001 to 20 μM, in 96 well plates and fluorescence intensities were measured for 90 seconds with 2-second intervals. An EC50 value (concentration of the GPR120 agonist where 50% of the agonist's maximal activity is observed) was calculated using the changes (Max-Min) of fluorescence intensity.
To determine percent activity for a tested compound, the fluorescence intensity value obtained at a particular concentration were compared to the maximal fluorescence intensity value obtained for reference compound GW9508 (4-[[(3-phenoxyphenyl)methyl]amino]benzene propanoic acid; British Journal of Pharmacology 2006 148, 619-628) or the compound of Example 25. When GW9508 was used as the reference compound, the maximal activity of GW9508 at 6.7 μM was designated as 100% activity. When the compound of Example 25 was used as the reference compound, the maximal activity of the compound of Example 25 at 2.5 μM was designated as 100% activity. Typically, the GW9508 activity reached a maximum at a concentration of approximately 6.7 μM and typically the compound of Example 25 reached a maximum activity at approximately 2.5 μM.
In the case of CC(=O)NCCOC(=O)C(C)Cc1ccc(OCc2cc(Cl)cc3c2OC(C)(C)C3)c(C(F)(F)F)c1 (stereo not drawn) [Example 126, 2-acetamidoethyl 3-(4-((5-chloro-2,2-dimethyl-2,3-dihydrobenzofuran-7-yl)methoxy)-3-(trifluoromethyl)phenyl)-2-methylpropanoate], the “% Activity (Ex. 25 Reference Compound)” value is reported as 47.02%. In the case of [2H]C([2H])(Oc1ccc(CCC(=O)O)c(CC)c1F)c1cc(F)cc2c1OC(C)(C)C2 [Example 228, 3-(4-(dideuterio(5-fluoro-2,2-dimethyl-2,3-dihydrobenzofuran-7-yl)methoxy)-3-fluoro-2-ethylphenyl)propanoic acid], the “% Activity (Ex. 25 Reference Compound)” value is reported as 119.11%. For CC1(C)Cc2cc(F)cc(COc3ccc4cc(C(=O)O)ccc4c3)c2O1 [Example 114, 6-((5-fluoro-2,2-dimethyl-2,3-dihydrobenzofuran-7-yl)methoxy)-2-naphthoic acid], the “% Activity (Ex. 25 Reference Compound)” value was 123.58%. In the case of CC(Cc1ccc(OCc2cc(Cl)cc3c2OC(C)(C)C3)c(CN(C)C)c1)C(=O)O (stereo not drawn) [Example 88, 3-(4-((5-chloro-2,2-dimethyl-2,3-dihydrobenzofuran-7-yl)methoxy)-3-((dimethylamino)methyl)phenyl)-2-methylpropanoic acid], the “% Activity (Ex. 25 Reference Compound)” value is reported as 118.92%. For CC1(C)Cc2cc(Cl)cc(COc3ccc4c(c3)CC[C@H]4CC(=O)O)c2O1 [Example 176, (S)-2-(5-((5-chloro-2,2-dimethyl-2,3-dihydrobenzofuran-7-yl)methoxy)-2,3-dihydro-1H-inden-1-yl)acetic acid], the “% Activity (Ex. 25 Reference Compound)” value was 138.42%. With CC1(C)Cc2cc(F)cc(COc3c(F)cc(CC4CC4C(=O)O)cc3F)c2O1 (single isomer, unassigned) [Example 184A, 2-(3,5-difluoro-4-((5-fluoro-2,2-dimethyl-2,3-dihydrobenzofuran-7-yl)methoxy)benzyl)cyclopropanecarboxylic acid] the “% Activity (Ex. 25 Reference Compound)” value was 95.58%. CC1(C)Cc2cc(Cl)cc(COc3ccc(CCC(=O)O)c(-c4ccccc4)c3)c2O1 [Example 71, 3-(5-((5-chloro-2,2-dimethyl-2,3-dihydrobenzofuran-7-yl)methoxy)-[1,1′-biphenyl]-2-yl)propanoic acid] was tested, and the “% Activity (Ex. 25 Reference Compound)” value was 133.8%. With CC(C)Oc1ncccc1COc1ccc2c(c1)CCC2CC(=O)O (stereo not drawn) [Example 259, 2-(5-((2-isopropoxypyridin-3-yl)methoxy)-2,3-dihydro-1H-inden-1-yl)acetic acid] the “% Activity (Ex. 25 Reference Compound)” value was 118.5%. CC1(C)Cc2cc(F)cc(COc3ccc(CCC(=O)O)c4c3CCCC4)c2O1 [Example 218, 3-(4-((5-fluoro-2,2-dimethyl-2,3-dihydrobenzofuran-7-yl)methoxy)-5,6,7,8-tetrahydronaphthalen-1-yl)propanoic acid] was tested, and the “% Activity (Ex. 25 Reference Compound)” value was 114.48%. For CC1(C)Cc2cc(F)cc(COc3ccc(CCC(=O)O)c(OC(F)(F)F)c3)c2O1 [Example 136, 3-(4-((5-fluoro-2,2-dimethyl-2,3-dihydrobenzofuran-7-yl)methoxy)-2-(trifluoromethoxy)phenyl)propanoic acid], the “% Activity (Ex. 25 Reference Compound)” value was 140.51%. CC1(C)Cc2cc(F)cc(COc3c(F)cc(CC4CC4C(=O)O)cc3F)c2O1 (single isomer, unassigned) [Example 184B, 2-(3,5-difluoro-4-((5-fluoro-2,2-dimethyl-2,3-dihydrobenzofuran-7-yl)methoxy)benzyl)cyclopropanecarboxylic acid] was tested, and the “% Activity (Ex. 25 Reference Compound)” value was 130.66%. In the case of CC(C)Oc1cc(OCc2cc(F)cc3c2OC(C)(C)C3)ccc1CCC(=O)O [Example 115, 3-(4-((5-fluoro-2,2-dimethyl-2,3-dihydrobenzofuran-7-yl)methoxy)-2-isopropoxyphenyl)propanoic acid], the “% Activity (Ex. 25 Reference Compound)” value is reported as 151.78%. C[C@H](Cc1ccc(OCc2cc(Cl)cc3c2OC(C)(C)C3)c(F)c1)C(=O)O [Example 141, (R)-3-(4-((5-chloro-2,2-dimethyl-2,3-dihydrobenzofuran-7-yl)methoxy)-3-fluorophenyl)-2-methylpropanoic acid] was tested, and the “% Activity (Ex. 25 Reference Compound)” value was 143.3%. With C[C@H](Cc1ccc(OCc2cc(F)cc3c2OC(C)(C)C3)cc1)C(=O)O [Example 65, (R)-3-(4-((5-fluoro-2,2-dimethyl-2,3-dihydrobenzofuran-7-yl)methoxy)phenyl)-2-methylpropanoic acid] the “% Activity (Ex. 25 Reference Compound)” value was 141.04%. CC(Cc1cc(F)c(OCc2cccc3cn[nH]c23)c(F)c1)C(=O)O (stereo not drawn) [Example 260, 3-(4-((1H-indazol-7-yl)methoxy)-3,5-difluorophenyl)-2-methylpropanoic acid] was tested, and the “% Activity (Ex. 25 Reference Compound)” value was 16.67%. CC1(C)Cc2cc(Cl)cc(COc3ccccc3CCC(=O)O)c2O1 [Example 250, 3-(2-((5-chloro-2,2-dimethyl-2,3-dihydrobenzofuran-7-yl)methoxy)phenyl)propanoic acid] was tested, and the “% Activity (Ex. 25 Reference Compound)” value was 10.23%. [2H]C1([2H])c2cc(Cl)cc(COc3ccc(CC(C)C(=O)O)cc3C(F)(F)F)c2OC1(C)C (stereo not drawn) [Example 147, 3-(4-((3,3-dideuterio-5-chloro-2,2-dimethyl-2,3-dihydrobenzofuran-7-yl)methoxy)-3-(trifluoromethyl)phenyl)-2-methylpropanoic acid] was tested, and the “% Activity (Ex. 25 Reference Compound)” value was 138.65%. In the case of CCc1cc(OCc2cc(F)cc3c2OC(C)(C)C3)ccc1CCC(=O)O [Example 134, 3-(2-ethyl-4-((5-fluoro-2,2-dimethyl-2,3-dihydrobenzofuran-7-yl)methoxy)phenyl)propanoic acid], the “% Activity (Ex. 25 Reference Compound)” value is reported as 151.44%. For CC1(C)Cc2c(ccc(F)c2COc2c(F)cc(C3CC3C(=O)O)cc2F)O1 (stereo not drawn) [Example 99, 2-(3,5-difluoro-4-((5-fluoro-2,2-dimethyl-2,3-dihydrobenzofuran-4-yl)methoxy)phenyl)cyclopropanecarboxylic acid], the “% Activity (Ex. 25 Reference Compound)” value was 101.53%.

Same assay, conditions: human GPR120 stably expressing cells, eight concentrations from 0.00001 to 20 μM
CC(=O)NCCOC(=O)C(C)Cc1ccc(OCc2cc(Cl)cc3c2OC(C)(C)C3)c(C(F)(F)F)c1 (stereo not drawn) [Example 126, 2-acetamidoethyl 3-(4-((5-chloro-2,2-dimethyl-2,3-dihydrobenzofuran-7-yl)methoxy)-3-(trifluoromethyl)phenyl)-2-methylpropanoate] was tested, and the EC50 was 1 to 10 µM. With CC(Cc1ccc(OCc2cc(Cl)cc3c2OC(C)(C)C3)c(CN(C)C)c1)C(=O)O (stereo not drawn) [Example 88, 3-(4-((5-chloro-2,2-dimethyl-2,3-dihydrobenzofuran-7-yl)methoxy)-3-((dimethylamino)methyl)phenyl)-2-methylpropanoic acid] the EC50 was 1 to 10 µM. CC(Cc1ccc(OCc2ccc(F)c3c2OC(C)(C)C3)cc1)C(=O)O (stereo not drawn) [Example 30, 3-(4-((4-fluoro-2,2-dimethyl-2,3-dihydrobenzofuran-7-yl)methoxy)phenyl)-2-methylpropanoic acid] showed an EC50 of 1 to 10 µM. COc1cc(OCc2cc(Cl)cc3c2OC(C)(C)C3)ccc1CCC(=O)O [Example 55, 3-(4-((5-chloro-2,2-dimethyl-2,3-dihydrobenzofuran-7-yl)methoxy)-2-methoxyphenyl)propanoic acid] gave an EC50 of 1 to 10 µM. CC1(C)Cc2cc(Cl)cc(COc3ccc(CCC(=O)O)c(C(F)(F)F)c3)c2O1 [Example 62, 3-(4-((5-chloro-2,2-dimethyl-2,3-dihydrobenzofuran-7-yl)methoxy)-2-(trifluoromethyl)phenyl)propanoic acid] showed an EC50 of 1 to 10 µM. C[C@H](Cc1ccc(OCc2cc(F)cc3c2OC(C)(C)C3)cc1)C(=O)O [Example 65, (R)-3-(4-((5-fluoro-2,2-dimethyl-2,3-dihydrobenzofuran-7-yl)methoxy)phenyl)-2-methylpropanoic acid] was tested, and the EC50 was 1 to 10 µM. CC1(C)Cc2cc(Cl)cc(COc3ccc(CCC(=O)O)c(Cl)c3)c2O1 [Example 52, 3-(2-chloro-4-((5-chloro-2,2-dimethyl-2,3-dihydrobenzofuran-7-yl)methoxy)phenyl)-propanoic acid] showed an EC50 of 1 to 10 µM.

Same assay, conditions: typical value, reference compound
In the case of “4-[[(3-phenoxyphenyl)methyl]amino]benzene propanoic acid [GW9508, reference compound]”, the “concentration at which activity reached a maximum” value is reported as “approximately 6.7 μM”.
